Assay results from patent US20160235717A1, “BENDAMUSTINE PHARMACEUTICAL COMPOSITIONS” (LUITPOLD PHARMACEUTICALS, INC., priority 2013, published 2016).
In brackets after ≈: the same amount, converted by molar mass. Structures can show the parent of a compound that is named as a salt.

Tests used:
[1] = cited from earlier work
[2] = Water uptake of anhydrous Bendamustine HCl; type: physicochemical
Protocol: Bendamustine HCl was an anhydrous form with a water content level of nmt 1.0%. The Bendamustine HCl used herein was not the Form 1 polymorph and was at least similar to an anhydrous version of the Form 2 polymorph. A sample of Bendamustine HCl anhydrous (with a thickness of about 2 mm was is saturated in water after 60 minutes and the water level reached about 4.7-4.8%. Exposing the Bendamustine HCl to atmospheric conditions for 1 hour caused the % water to increase to about 4.5%, corresponding to the monohydrate form (MW Bendamustine HCl=394.7 g/mol and H2O=18 g/mol; [(394.7+18)/394.7]100=104.6%).

[3] = Dissolution of bendamustine HCl in DMSO/water at 15° C. (Example 6); type: physicochemical
Protocol: 37.5 ml of water was placed in a glass beaker and mixing was initiated at about 350 rpm. 2.1266 g mannitol added and mixed for about 5 minutes. About 12.5 ml of DMSO was added and solution brought to about 15° C. 1.2672 g of bendamustine HCl added and mixed. A milky solution was the result.
The sample was not used for analysis purposes, however, 3 ml of DMSO was added and the sample was cloudy. Another 3 ml of DMSO was added and the solution started to clear up. The addition of DMSO corresponds to about 35% DMSO.

Row | Compound | solubility limit in the preferred Treanda® formulation ([1]; at 5° C., disclosed in U.S. Pat. No. 8,436,190B2) [mg/mL] | water level when saturated in water ([2]; anhydrous sample, thickness about 2 mm, after 60 minutes) | % water after exposure to atmospheric conditions ([2]; exposure for 1 hour, corresponds to the monohydrate form) | solubility in 75% water ([3]; 25 mg/ml with mannitol 42.5 mg/ml in DMSO 25% v/v in water, about 15° C. (sample 6IB130709-1), a milky solution resulted) | solubility in DMSO ([1]; at 25° C., has been reported) [mg/mL] | solubility in water ([1]; at 25° C., has been reported) [mg/mL] | DMSO content optimal for dissolution ([3]; at 15° C., DMSO added to sample 6IB130709-1 until the solution started to clear up)
1 | Cn1c(CCCC(=O)O)nc2cc(N(CCCl)CCCl)ccc21 [Bendamustine HCl] | 27 | 4.7-4.8% | about 4.5% | not found to be soluble | – | – | –
2 | Cn1c(CCCC(=O)O)nc2cc(N(CCCl)CCCl)ccc21 [bendamustine, 4-[5-[Bis(2-chloroethyl)amino]-1-methylbenzimidazol-2-yl]butanoic acid] | – | – | – | – | 79 (≈ 221 mM) | 15 (≈ 41.9 mM) | more than 35%
